Measured values reported in patent publication EP0414533A1, “Use of iodopropargyl esters of alpha-amino acid derivatives as antimicrobial agents” (ROHM AND HAAS COMPANY, priority 1989, dated 1991).
≈ marks a conversion by molar mass, not a printed value. Counter-ions that a name gives are not always drawn. Like-named read-outs stand apart in the source and are kept apart here.

Tests used:
[1] = system: Piricularia oryzae (PIR); assay: microbe, parasite or virus in culture; type: cell-based; conditions: read-out: % Control at 25 ppm PIR
[2] = system: Staphylococcus aureus (SAUR); assay: Minimum inhibitory concentration (MIC), broth two-fold serial dilution test; conditions: Staphylococcus aureus, read-out: MIC (G+) SAUR, M9G (minimal salts media with glucose); Table IIIc, iodopropargyl esters of peptides
[3] = system: Pseudomonas aerugenosa (PSAE); assay: as above; conditions: Pseudomonas, read-out: MIC (G-) PSAE, M9G (minimal salts media with glucose); Table IIIc, iodopropargyl esters of peptides
[4] = system: Aspergillus niger (ANIG); assay: as above; type: cell-based; conditions: Aspergillus niger, Table IIIc, iodopropargyl esters of peptides
[5] = system: Xanthomonas campestris (XAN); assay: In-vitro plant fungicide test; type: cell-based; conditions: Xanthomonas campestris; 25 ppm; Table IVa; read-out: % Control at 25 ppm XAN
[6] = system: Botrytis cinerea (BOC); assay: In-vitro plant fungicide test; type: cell-based; conditions: Botrytis cinerea, 25 ppm; Table IVa; *=Phytotoxic; read-out: % Control at 25 ppm BOC
[7] = system: Septoria nodorum (SEP); assay: In-vitro plant fungicide test; type: cell-based; conditions: Parastagonospora nodorum, 25 ppm; Table IVa; read-out: % Control at 25 ppm SEP
[8] = system: THREE FUNGI; assay: MIC test against three fungi in Mycophile Broth, pH 5.0, read after 8 days (Table VII); type: cell-based; conditions: 192 h
[9] = system: Phytophthora capsici (PHY); assay: In-vitro plant fungicide test; type: cell-based; conditions: Phytophthora capsici; 25 ppm; Table IVa; read-out: % Control at 25 ppm PHY
[10] = system: Pseudomonas fluorescens (PSFL); assay: Minimum inhibitory concentration (MIC), broth two-fold serial dilution test; conditions: Pseudomonas fluorescens, read-out: MIC (G-) PSFL, M9G (minimal salts media with glucose); Table IIIc, iodopropargyl esters of peptides
[11] = system: Pythium ultimum (PYU); assay: In-vitro plant fungicide test; type: cell-based; conditions: Globisporangium ultimum; 25 ppm; Table IVa; read-out: % Control at 25 ppm PYU
[12] = system: Rhizoctonia solani (RHI); assay: In-vitro plant fungicide test; type: cell-based; conditions: Rhizoctonia solani; 25 ppm; Table IVa; read-out: % Control at 25 ppm RHI
[13] = system: Aureobasidium pullulans (APUL); assay: Minimum inhibitory concentration (MIC), broth two-fold serial dilution test; type: cell-based; conditions: Aureobasidium pullulans, Table IIIc, iodopropargyl esters of peptides
[14] = system: Cochliobolus sativus (HEL); assay: In-vitro plant fungicide test; type: cell-based; conditions: Bipolaris sorokiniana, 25 ppm; Table IVa; *=Phytotoxic; read-out: % Control at 25 ppm HEL
[15] = system: Fusarium roseum (FUS); assay: In-vitro plant fungicide test; type: cell-based; conditions: Fusarium sambucinum, read-out: % Control at 25 ppm FUS, 25 ppm; Table IVa; *=Phytotoxic
[16] = system: Escherichia coli (ECOL); assay: Minimum inhibitory concentration (MIC), broth two-fold serial dilution test; conditions: Escherichia coli, read-out: MIC (G-) ECOL, M9G (minimal salts media with glucose); Table IIIc, iodopropargyl esters of peptides
[17] = read-out: MIC (F) ANIG, M9G (minimal salts media with glucose)
[18] = Aspergillus niger, pH 5, read-out: MIC ANIG, Aspergillus niger, serial dilutions from 50 ppm, read after 8 days of incubation
[19] = Aureobasidium pullulans, pH 5, read-out: MIC APUL, Aureobasidium pullulans, serial dilutions from 50 ppm, read after 8 days of incubation
[20] = Gloeophyllum trabeum, pH 5, read-out: MIC GTRA, Gloeophyllum trabeum, serial dilutions from 50 ppm, read after 8 days of incubation
[21] = read-out: MIC (F) APUL, M9G (minimal salts media with glucose)

Which results are given for `C[C@H](N)C(=O)NCC(=O)OCC#CI` [Compound 17, L-alanylglycine iodopropargyl ester trifluoroacetate]?
inhibition of growth at 25 ppm [1]: 100%; MIC [2]: 100 mg/L; MIC [3]: 100 mg/L; MIC [4, 17]: < 0.8 mg/L; inhibition of growth at 25 ppm [5]: 0%; inhibition of growth at 25 ppm [6]: 75%; inhibition of growth at 25 ppm [7]: 75%; MIC [8, 18]: 12.5 mg/L; MIC [8, 19]: 50 mg/L; MIC [8, 20]: 25 mg/L; inhibition of growth at 25 ppm [9]: 100%; MIC [10]: 100 mg/L; inhibition of growth at 25 ppm [11]: 100%; inhibition of growth at 25 ppm [12]: 100%; MIC [13, 21]: < 0.8 mg/L; inhibition of growth at 25 ppm [14]: 50%; inhibition of growth at 25 ppm [15]: 100%; MIC [16]: 100 mg/L

With `C[C@H](N)C(=O)N[C@H](C(=O)OCC#CI)[C@@H](C)OCc1ccccc1` [Compound 21, L-alanyl-O-benzyl-L-threonine iodopropargyl ester trifluoroacetate] as the compound, how does the inhibition of growth at 25 ppm [1] read?
The inhibition of growth at 25 ppm was 100%.

What about the MIC [2] of the same compound?
Its MIC is > 100 mg/L.

What about the MIC [3] of the same compound?
Its MIC is 100 mg/L.

And the MIC [4, 17]?
The MIC was < 0.8 mg/L.

What about the inhibition of growth at 25 ppm [5] of the same compound?
Its inhibition of growth at 25 ppm is 0%.

What about the inhibition of growth at 25 ppm [6] of the same compound?
The inhibition of growth at 25 ppm was 0%.

And the inhibition of growth at 25 ppm [7]?
Its inhibition of growth at 25 ppm is 100%.

What about the MIC [8, 18] of the same compound?
Its MIC is 50 mg/L.

What about the MIC [8, 19] of the same compound?
The MIC was > 50 mg/L.

And the MIC [8, 20]?
The MIC was 50 mg/L.

And the inhibition of growth at 25 ppm [9]?
Its inhibition of growth at 25 ppm is 100%.

What about the MIC [10] of the same compound?
The MIC was 100 mg/L.

What about the inhibition of growth at 25 ppm [11] of the same compound?
The inhibition of growth at 25 ppm was 100%.

And the inhibition of growth at 25 ppm [12]?
Its inhibition of growth at 25 ppm is 100%.

And the MIC [13, 21]?
The MIC was 1.6 mg/L.

What about the inhibition of growth at 25 ppm [14] of the same compound?
The inhibition of growth at 25 ppm was 0%.

And the inhibition of growth at 25 ppm [15]?
Its inhibition of growth at 25 ppm is 0%.

And the MIC [16]?
The MIC was 100 mg/L.

With `C[C@H](N)C(=O)N[C@@H](CSCc1ccccc1)C(=O)OCC#CI` [Compound 20, L-alanyl-S-benzyl-L-cysteine iodopropargyl ester trifluoroacetate] as the compound, how does the inhibition of growth at 25 ppm [1] read?
The inhibition of growth at 25 ppm was 100%.

And the MIC [2]?
Its MIC is 100 mg/L.

What about the MIC [3] of the same compound?
Its MIC is 100 mg/L.

What about the MIC [4, 17] of the same compound?
The MIC was < 0.8 mg/L.

What about the inhibition of growth at 25 ppm [5] of the same compound?
Its inhibition of growth at 25 ppm is 0%.

What about the inhibition of growth at 25 ppm [6] of the same compound?
The inhibition of growth at 25 ppm was 0%.

What about the inhibition of growth at 25 ppm [7] of the same compound?
Its inhibition of growth at 25 ppm is 100%.

And the MIC [8, 18]?
Its MIC is 50 mg/L.

And the MIC [8, 19]?
Its MIC is 50 mg/L.

And the MIC [8, 20]?
The MIC was 12.5 mg/L.

What about the inhibition of growth at 25 ppm [9] of the same compound?
The inhibition of growth at 25 ppm was 100%.

What about the MIC [10] of the same compound?
Its MIC is 100 mg/L.

And the inhibition of growth at 25 ppm [11]?
Its inhibition of growth at 25 ppm is 100%.

What about the inhibition of growth at 25 ppm [12] of the same compound?
The inhibition of growth at 25 ppm was 100%.

What about the MIC [13, 21] of the same compound?
The MIC was < 0.8 mg/L.

And the inhibition of growth at 25 ppm [14]?
The inhibition of growth at 25 ppm was 100%.

And the inhibition of growth at 25 ppm [15]?
The inhibition of growth at 25 ppm was 100%.

What about the MIC [16] of the same compound?
The MIC was 100 mg/L.

For `C[C@H](NC(=O)OC(C)(C)C)C(=O)N[C@@H](C)C(=O)OCC#CI` [Compound 13, N-t-butoxycarbonyl-L-alanyl-L-alanine iodopropargyl ester], which inhibition of growth at 25 ppm [1] is on record?
Its inhibition of growth at 25 ppm is 100%.

And the MIC [2]?
The MIC was 50 mg/L.

And the MIC [3]?
The MIC was 50 mg/L.

And the MIC ([4]; M9G (minimal salts media with glucose), read-out: MIC (F) ANIG)?
The MIC was < 0.8 mg/L.

And the inhibition of growth at 25 ppm [5]?
The inhibition of growth at 25 ppm was 0%.

What about the inhibition of growth at 25 ppm [6] of the same compound?
Its inhibition of growth at 25 ppm is 50%.

What about the inhibition of growth at 25 ppm [7] of the same compound?
The inhibition of growth at 25 ppm was 100%.

And the MIC ([8]; Aspergillus niger, serial dilutions from 50 ppm, read after 8 days of incubation, read-out: MIC ANIG)?
The MIC was 25 mg/L (≈ 58.9 µM).

What about the MIC ([8]; Aureobasidium pullulans, serial dilutions from 50 ppm, read after 8 days of incubation, read-out: MIC APUL) of the same compound?
Its MIC is 50 mg/L (≈ 118 µM).

What about the MIC ([8]; Gloeophyllum trabeum, serial dilutions from 50 ppm, read after 8 days of incubation, read-out: MIC GTRA) of the same compound?
The MIC was 6.2 mg/L (≈ 14.6 µM).

And the inhibition of growth at 25 ppm [9]?
Its inhibition of growth at 25 ppm is 100%.

And the MIC [10]?
Its MIC is 50 mg/L.

And the inhibition of growth at 25 ppm [11]?
The inhibition of growth at 25 ppm was 100%.

And the inhibition of growth at 25 ppm [12]?
The inhibition of growth at 25 ppm was 100%.

What about the MIC ([13]; M9G (minimal salts media with glucose), read-out: MIC (F) APUL) of the same compound?
Its MIC is < 0.8 mg/L.

And the inhibition of growth at 25 ppm [14]?
The inhibition of growth at 25 ppm was 100%.

And the inhibition of growth at 25 ppm [15]?
The inhibition of growth at 25 ppm was 100%.

And the MIC [16]?
Its MIC is 100 mg/L.
